Columns and labels:
Aphis craccivora [1] = experiment: Insecticidal activity against Aphis craccivora (cowpea aphid) assessed as mortality at 500 mg/l measured after 24 hr; format: functional
Aphis craccivora [2] = experiment: Insecticidal activity against Aphis craccivora (cowpea aphid) assessed as mortality measured after 24 hr; format: functional

Row | SMILES | mortality at 500 µg/mL (Aphis craccivora [1]) [%] | LC50 (Aphis craccivora [2]) [µM]
1 | O=[N+]([O-])C1=C2N(Cc3ccc(Cl)nc3)CCN2C(OCCCl)CC1 (centres undefined) | 44.8 | –
2 | CCOCCOC1CCC([N+](=O)[O-])=C2N(Cc3ccc(Cl)nc3)CCN21 (centres undefined) | 10.2 | –
3 | COC1CC(C)C([N+](=O)[O-])=C2N(Cc3ccc(Cl)nc3)CCN21 (centres undefined) | > 90 | 148
4 | CCC(C)OC1CCC([N+](=O)[O-])=C2N(Cc3ccc(Cl)nc3)CCN21 (centres undefined) | < 10 | –
5 | O=[N+]([O-])C1=C2N(Cc3ccc(Cl)nc3)CCN2C(OCc2ccc(Cl)nc2)CC1 (centres undefined) | 50 | 1150
6 | COC1CCC([N+](=O)[O-])=C2N(Cc3ccc(Cl)nc3)CCN21 (centres undefined) | > 90 | 132
7 | O=[N+]([O-])C1=C2N(Cc3ccc(Cl)nc3)CCN2C(O)CC1 (centres undefined) | > 90 | 188
8 | C#CCOC1CCC([N+](=O)[O-])=C2N(Cc3ccc(Cl)nc3)CCN21 (centres undefined) | 46.9 | –
9 | CCCCOC1CCC([N+](=O)[O-])=C2N(Cc3ccc(Cl)nc3)CCN21 (centres undefined) | 77.7 | –
10 | CC(C)=CCOC1CCC([N+](=O)[O-])=C2N(Cc3ccc(Cl)nc3)CCN21 (centres undefined) | 15.9 | –
11 | CCCOC1CCC([N+](=O)[O-])=C2N(Cc3ccc(Cl)nc3)CCN21 (centres undefined) | > 90 | 105
12 | CC(C)OC1CCC([N+](=O)[O-])=C2N(Cc3ccc(Cl)nc3)CCN21 (centres undefined) | > 90 | 260
13 | O=[N+]([O-])C1=C2N(Cc3ccc(Cl)nc3)CCN2C(OCc2ccccc2)CC1 (centres undefined) | > 90 | 573
14 | O=[N+]([O-])/N=C1\NCCN1Cc1ccc(Cl)nc1 [IMIDACLOPRID] | > 90 | 35
15 | CC(C)CCOC1CCC([N+](=O)[O-])=C2N(Cc3ccc(Cl)nc3)CCN21 (centres undefined) | 24.4 | –
16 | CCOC1CC(C)C([N+](=O)[O-])=C2N(Cc3ccc(Cl)nc3)CCN21 (centres undefined) | > 90 | 186
17 | O=[N+]([O-])C1=C2N(Cc3ccc(Cl)nc3)CCN2C(OCC(F)(F)F)CC1 (centres undefined) | 10.3 | –
18 | CC1CC(O)N2CCN(Cc3ccc(Cl)nc3)C2=C1[N+](=O)[O-] (centres undefined) | > 90 | 97
19 | CCCCCOC1CCC([N+](=O)[O-])=C2N(Cc3ccc(Cl)nc3)CCN21 (centres undefined) | 62.6 | –
20 | CCOC1CCC([N+](=O)[O-])=C2N(Cc3ccc(Cl)nc3)CCN21 (centres undefined) | > 90 | 96
21 | CC(C)(C)OC1CCC([N+](=O)[O-])=C2N(Cc3ccc(Cl)nc3)CCN21 (centres undefined) | 72.8 | –
22 | O=[N+]([O-])C1=C2N(Cc3ccc(Cl)nc3)CCN2C(OC/C=C\c2ccccc2)CC1 (centres undefined) | < 10 | –
23 | CC(C)COC1CCC([N+](=O)[O-])=C2N(Cc3ccc(Cl)nc3)CCN21 (centres undefined) | 76.3 | –
